Experimental data taken from PubChem BioAssay (NCI).
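A five-concentration, 48-hour dose response in 96-well plates underlies each endpoint, interpolated linearly between surrounding concentrations. GI50: concentration for 50% inhibition of growth. TGI denotes the concentration required for complete inhibition of growth.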

Legend:
Test in all cases: inhibition of tumour cell growth, NCI panel, 48 h
A549 NSCLC = test system: A549 NSCLC
HT29 colon = test system: HT29 colon
KM12 colon = test system: KM12 colon
SF-268 CNS = test system: SF-268 CNS
SF-539 CNS = test system: SF-539 CNS
SK-MEL-5 melanoma = test system: SK-MEL-5 melanoma
SN12C renal = test system: SN12C renal
U251 CNS = test system: U251 CNS
UO-31 renal = test system: UO-31 renal
MALME-3M melanoma = test system: MALME-3M melanoma

Row | Compound | TGI (A549 NSCLC) [µM] | TGI (HT29 colon) [µM] | TGI (KM12 colon) [µM] | TGI (SF-268 CNS) [µM] | TGI (SF-539 CNS) [µM] | TGI (SK-MEL-5 melanoma) [µM] | TGI (SN12C renal) [µM] | TGI (U251 CNS) [µM] | TGI (UO-31 renal) [µM] | TGI (MALME-3M melanoma) [µM] | GI50 (A549 NSCLC) [µM] | GI50 (HT29 colon) [µM] | GI50 (KM12 colon) [µM] | GI50 (MALME-3M melanoma) [µM] | GI50 (SF-268 CNS) [µM] | GI50 (SF-539 CNS) [µM] | GI50 (SK-MEL-5 melanoma) [µM] | GI50 (SN12C renal) [µM] | GI50 (U251 CNS) [µM] | GI50 (UO-31 renal) [µM]
1 | CC1CC2=C(S(=O)(=O)c3ccccc3)CC(S(=O)(=O)c3ccccc3)(S(=O)(=O)c3ccccc3)CC21 (stereo unspecified) | > 100 | > 100 | > 100 | > 100 | > 100 | > 100 | > 100 | > 100 | > 100 |  |  |  |  |  |  |  |  |  |  | 
2 | CCOP(=O)(OCC)C(c1ccc(F)cc1)N(C(=O)NC(F)(F)F)c1cccc(C(F)(F)F)c1 (stereo unspecified) | > 100 | > 100 | > 100 | > 100 | > 100 | > 100 | > 100 | > 100 | > 100 | > 100 |  |  |  |  |  |  |  |  |  | 
3 | COc1ccccc1CNCCCN1C(=O)c2ccc3c4c(ccc(c24)C1=O)C(=O)N(CCCNCCNCCCN)C3=O | 13.1 | 11 | 11.4 | 11.6 | 9.58 | 3.02 | 8.07 | 10.1 | 84.5 | 3.2 | 3.01 | 2.07 | 3.25 | 1.61 | 2.13 | 2.88 | 1.57 | 2.09 | 1.17 | 10.8
4 | COc1cc2oc(-c3ccc(O)cc3)c(OC)c(=O)c2c(O)c1OC | > 100 | > 100 | > 100 | > 100 | > 100 | > 100 | > 100 | > 100 | > 100 | > 100 | 58.6 | 31.1 | 78.9 | 28.4 | 79 | 44.1 | 70.1 | 33.7 |  | 42.6
5 | C/C(=N/NC(N)=S)c1ccc[nH]1 | > 100 | > 100 | > 100 | > 100 | > 100 | > 100 | > 100 | > 100 | > 100 | > 100 |  |  |  |  |  |  |  |  |  | 
6 | CCOC(=O)CNC(=O)N(CC)C12CC3CC(CC(C3)C1)C2 | 602 | 204 | 453 | 317 | 251 | 195 | 414 | 239 | 358 | 278 |  |  |  |  |  |  |  |  |  | 
7 | C[C@@H]1Nc2cc(NC(=O)OCCF)nc(N)c2N=C1c1ccccc1 | 46.6 |  |  |  | < 0.0001 | < 0.0001 | > 100 | 12.2 | 89.1 | 49 |  |  |  |  |  |  |  |  |  | 
8 | COc1ccc(S(=O)(=O)c2ccccc2[N+](=O)[O-])cc1 | > 100 | > 100 | > 100 | > 100 | > 100 | > 100 | > 100 | > 100 | > 100 | > 100 |  |  |  |  |  |  |  |  |  | 
9 | COCc1nc2c(OC)c(-c3nc4nc(N5CCN(C)CC5)ccc4[nH]3)cc(OC)c2n1C | > 100 | 62 | 61.6 | > 100 | 27.1 |  | > 100 | 61.9 | 76.9 | 35.6 |  |  |  |  |  |  |  |  |  | 
10 | Clc1ccc(C[P+](c2ccccc2)(c2ccccc2)c2ccccc2)c(Cl)c1 | 32.5 | 10.4 | 7.01 | 24 | 15.8 | 3.38 | 12.4 | 18.8 |  | 15.7 |  |  |  |  |  |  |  |  |  | 
11 | CCOC(=O)c1ccc(N[C@@H]2c3cc4c(cc3C(c3cc(OC)c(O)c(OC)c3)[C@H]3C(=O)OCC32)OCO4)cc1O (stereo partly specified) | 2.51 | 1.32 | 1.47 | 25.3 | 2.69 | 3.02 |  |  | 78.1 | 14.2 |  |  |  |  |  |  |  |  |  | 
12 | CCOC(=O)Cn1c(=O)ccn(COCCO)c1=O | > 100 | > 100 | > 100 | > 100 | > 100 | > 100 | > 100 | > 100 | > 100 | > 100 |  |  |  |  |  |  |  |  |  | 
13 | COCCCNc1nc(N)c(C#N)c(C#N)c1C#N | > 10 | > 10 | > 10 | > 10 | > 10 | > 10 | > 10 | > 10 | > 10 | > 10 |  |  |  |  |  |  |  |  |  | 
